We go through 22 compounds from patent US20090239840A1, “AMINO SUBSTITUTED DIARYL[a,d]CYCLOHEPTENE ANALOGS AS [sequence] AGONISTS AND METHODS OF TREATMENT OF NEUROPSYCHIATRIC DISORDERS” (ACADIA PHARMACEUTICALS, INC., priority 2003, published 2009).

Test [1] addresses T1, muscarinic M3 receptor (Homo sapiens, UniProt P20309).
T1 construct: expressed in transfected cells
Put plainly: R-SAT functional screen, M3. The test is classed as cell-based. An excerpt: The term “modulate” refers to the ability of a compound disclosed herein to alter the function of a muscarinic receptor. A modulator may activate the activity of a muscarinic receptor, may activate or inhibit the activity of a muscarinic receptor depending on the concentration of the compound exposed to the muscarinic receptor, or may inhibit the activity of a muscarinic receptor. The term “modulate” also refers to altering the function of a muscarinic receptor by increasing or decreasing the probability that a complex forms between a muscarinic receptor and a natural binding partner. A modulator may increase the probability that such a complex forms between the muscarinic receptor and the natural binding partner, may increase or decrease the probability that a complex forms between the muscarinic receptor and the natural binding partner depending on the concentration of the compound exposed to the muscarinic receptor, and or may decrease the probability that a complex forms between the muscarinic receptor and the natural binding partner. In some embodiments, modulation of the muscarinic receptor may be assessed using Receptor Selection and Amplification Technology (R-SAT) as described in U.S. Pat. No. 5,707,798, the disclosure of which is incorporated herein by reference in its entirety.
Several compounds disclosed herein were evaluated for activity at muscarinic receptors using Receptor Selection and Amplification Technology (R-SAT) as described in U.S. Pat. No. 5,707,798, the disclosure of which is incorporated herein by reference in its entirety. The efficacy (eff) and potency (expressed as pEC50) of these compounds are presented in Table 1 at M1, M2, and M3 receptors.

Test [2] addresses T2, muscarinic M2 receptor (Homo sapiens, UniProt P08172).
T2 construct: expressed in transfected cells
T2 sequence (P08172 1-466): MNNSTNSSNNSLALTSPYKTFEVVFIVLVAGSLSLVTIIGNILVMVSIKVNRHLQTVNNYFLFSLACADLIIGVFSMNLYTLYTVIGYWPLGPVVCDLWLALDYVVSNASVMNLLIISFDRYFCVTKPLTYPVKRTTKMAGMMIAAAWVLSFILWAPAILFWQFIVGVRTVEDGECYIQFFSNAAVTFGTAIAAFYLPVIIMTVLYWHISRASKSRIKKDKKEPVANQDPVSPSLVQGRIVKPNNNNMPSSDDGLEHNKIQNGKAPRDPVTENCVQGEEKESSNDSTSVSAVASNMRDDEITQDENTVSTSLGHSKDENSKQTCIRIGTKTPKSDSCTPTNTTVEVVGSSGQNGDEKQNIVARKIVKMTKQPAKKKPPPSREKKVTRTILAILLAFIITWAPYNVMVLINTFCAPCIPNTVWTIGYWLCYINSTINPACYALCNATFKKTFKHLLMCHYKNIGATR
In words: R-SAT functional screen, M2. The test is classed as cell-based. The settings on record: for Emax: read-out: M2 eff (efficacy). In outline:
(§1)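 Receptor Selection and Amplification Technology (R-SAT) functional cell assay at M1, M2, M3 receptors. Values reported as efficacy (eff) and potency as pEC50.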

Test [3] addresses T3, muscarinic M1 receptor (Homo sapiens, UniProt P11229).
T3 construct: expressed in transfected cells
T3 sequence (P11229 1-460): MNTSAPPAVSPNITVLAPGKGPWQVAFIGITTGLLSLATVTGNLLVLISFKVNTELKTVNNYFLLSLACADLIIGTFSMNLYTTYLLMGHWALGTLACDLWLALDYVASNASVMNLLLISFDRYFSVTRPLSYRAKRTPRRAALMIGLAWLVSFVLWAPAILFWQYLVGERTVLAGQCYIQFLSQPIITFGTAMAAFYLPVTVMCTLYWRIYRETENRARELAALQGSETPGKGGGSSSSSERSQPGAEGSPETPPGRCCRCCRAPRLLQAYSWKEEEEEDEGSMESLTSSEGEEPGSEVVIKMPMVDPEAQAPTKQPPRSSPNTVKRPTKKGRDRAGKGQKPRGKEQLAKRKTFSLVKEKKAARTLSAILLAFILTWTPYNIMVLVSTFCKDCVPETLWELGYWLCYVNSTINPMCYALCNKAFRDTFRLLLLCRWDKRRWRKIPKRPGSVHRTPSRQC
Put plainly: R-SAT functional screen, M1. It is filed as cell-based. The settings on record: for Emax: read-out: M1 eff (efficacy). Summed up: as §1

In test [4] the test system is hyperactivity induced by amphetamine. Put plainly: Amphetamine induced hyperactivity mouse model. The test is classed as in vivo. The settings on record: mice, salts of the compounds. The protocol:
(§2) Five of the compounds listed in Table 2 were tested in an in vivo assay predictive of antipsychotic activity. Salts of these compounds where administered to mice having hyperactivity induced by amphetamine or MK-801 administration. The compounds were administered both subcutaneously (sc) and orally (po).

Test [5] concerns hyperactivity induced by MK-801. In words: MK-801 induced hyperactivity mouse model. The test is classed as in vivo. The settings on record: mice, salts of the compounds. How it is done:
as §2

Test [6] has as its system novel object recognition. Put plainly: Novel object recognition (NOR) assay. It is filed as in vivo. Particulars: mice, dose approx. ID75 in MK-801 hyperactivity assay. How it is done:
Salts of the compounds were administered to mice at one hour post-training (a time-point at which animals normally behaviorally discriminate between novel and familiar objects) and two hours post-training (a time-point at which these animals normally no longer discriminate between objects). Doses were selected to correspond to the approximate ID75 value in the MK-801 hyperactivity assay.

Setting [7] is: R-SAT, read-out: M2 pEC50 (converted).
Setting [8] is: R-SAT, read-out: M1 pEC50 (converted).

Where two headings read alike, the source gives them in different places.

T1 sequence (P20309 whole entry): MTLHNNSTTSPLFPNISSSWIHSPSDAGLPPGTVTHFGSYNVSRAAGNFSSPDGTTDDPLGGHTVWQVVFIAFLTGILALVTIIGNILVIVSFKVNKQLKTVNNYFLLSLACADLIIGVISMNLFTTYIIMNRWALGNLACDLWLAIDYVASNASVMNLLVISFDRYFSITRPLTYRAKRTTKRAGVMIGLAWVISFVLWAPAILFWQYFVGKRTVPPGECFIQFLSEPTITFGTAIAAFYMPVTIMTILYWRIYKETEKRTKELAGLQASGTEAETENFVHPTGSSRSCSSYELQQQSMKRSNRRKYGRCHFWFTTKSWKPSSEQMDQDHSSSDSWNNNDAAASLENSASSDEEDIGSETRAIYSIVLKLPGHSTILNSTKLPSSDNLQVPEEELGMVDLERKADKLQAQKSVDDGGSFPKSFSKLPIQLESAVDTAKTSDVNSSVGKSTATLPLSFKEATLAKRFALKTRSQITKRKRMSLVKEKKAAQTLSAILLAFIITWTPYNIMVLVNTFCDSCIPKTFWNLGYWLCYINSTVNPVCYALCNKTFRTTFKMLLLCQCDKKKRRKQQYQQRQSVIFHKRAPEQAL

As to `Clc1ccc2c(c1)N=C(N1CCNCC1)c1cccc(Cl)c1N2` [4,8-Dichloro-11-(piperazin-1-yl)-5H-dibenzo[b,e][1,4]diazepine], in test [1], the “M3 eff (efficacy)” value amounted to 44. For the same compound, the EC50 in test [1] (read-out: M3 pEC50 (converted)) is 158 nM; in test [2] (setting [7]) it was 1000 nM; in test [3] (setting [8]), 63.1 nM. Further, the Emax in test [2] (R-SAT) amounted to 118%; in test [3] (R-SAT), 78%.

Turning to `Clc1cccc2c1C(N1CCNCC1)=Nc1cc(Br)ccc1N2` [8-Bromo-1-chloro-11-(piperazin-1-yl)-5H-dibenzo[b,e][1,4]diazepine], in test [1], the “M3 eff (efficacy)” value came to 4. In addition, the Emax in test [2] (R-SAT) came out at 105%; in test [3] (R-SAT), 66%. For the same compound, the EC50 in test [2] (setting [7]) is 2510 nM; in test [3] (setting [8]), 126 nM.

As for `Brc1ccc2c(c1)N=C(N1CCNCC1)c1ccccc1N2` [8-Bromo-11-(piperazin-1-yl)-5H-dibenzo[b,e][1,4]diazepine], the “M3 eff (efficacy)” value in test [1] is 13. The results for the Emax in test [2] (R-SAT) and in test [3] (R-SAT) were 121% and 63%, respectively. Further, the values for the EC50 in test [2] (setting [7]) and in test [3] (setting [8]) were 501 nM and 63.1 nM, respectively.

For the compound `Cc1cccc2c1Nc1ccc(Cl)cc1N=C2N1CCNCC1` [8-Chloro-4-methyl-11-(piperazin-1-yl)-5H-dibenzo[b,e][1,4]diazepine], in test [1], the “M3 eff (efficacy)” value came out at 16. For the same compound, the Emax turned out to be 162% in test [2] (R-SAT) and 92% in test [3] (R-SAT). In addition, the EC50 was 1000 nM in test [2] (setting [7]) and 63.1 nM in test [3] (setting [8]).

Turning to `Fc1ccc2c(c1)N=C(N1CCCNCC1)c1ccccc1N2` [8-Fluoro-11-[1,4]diazepam-1-yl-5H-dibenzo[b,e][1,4]diazepine], in test [2], the EC50 is 251 nM and the Emax was found to be 67%. Also, in test [3], the EC50 was 200 nM and the Emax was 25%.

As for `Ic1ccc2c(c1)N=C(N1CCNCC1)c1ccccc1N2` [8-Iodo-11-(piperazin-1-yl)-5H-dibenzo[b,e][1,4]diazepine], the Emax in test [2] (R-SAT) stood at 187%; in test [3] (R-SAT), 75%. In addition, the values for the EC50 in test [2] (setting [7]) and in test [3] (setting [8]) were 1000 nM and 63.1 nM, respectively.

For the compound `Cc1ccc2c(c1)N=C(N1CCNCC1)c1ccccc1N2` [8-Methyl-11-(piperazin-1-yl)-5H-dibenzo[b,e][1,4]diazepine], the Emax came to 98% in test [2] (R-SAT) and 49% in test [3] (R-SAT). Also, the EC50 was 1000 nM in test [2] (setting [7]) and 158 nM in test [3] (setting [8]).

Take `c1ccc2c(c1)Sc1cc3c(cc1N=C2N1CCNCC1)OCCO3` [11-(piperazin-1-yl)-2,3-dihydro-1,4-benzodioxino[6,7-b][1,4]benzothiazepin]: the Emax in test [2] (R-SAT) came to 28%; in test [3] (R-SAT), 6%.

For `N#Cc1ccc2c(c1)N=C(N1CCNCC1)c1ccccc1N2` [11-(piperazin-1-yl)-5H-dibenzo[b,e][1,4]diazepine-8-carbonitrile], the values for the Emax in test [2] (R-SAT) and in test [3] (R-SAT) were 106% and 49%, respectively. Moreover, the EC50 in test [2] (setting [7]) is 1000 nM; in test [3] (setting [8]) it was 251 nM.

Turning to `c1ccc2c(c1)N=C(N1CCNCC1)c1ccccc1N2` [11-(piperazin-1-yl)-5H-dibenzo[b,e][1,4]diazepine], the Emax in test [2] (R-SAT) was determined as 70%; in test [3] (R-SAT), 38%. Also, the EC50 in test [2] (setting [7]) was 2510 nM; in test [3] (setting [8]) it was 794 nM.

In the case of `FC(F)(F)c1ccc2c(c1)N=C(N1CCNCC1)c1ccccc1N2` [11-(piperazin-1-yl)-8-trifluoromethyl-5H-dibenzo[b,e][1,4]diazepine], the Emax in test [2] (R-SAT) came to 131%; in test [3] (R-SAT), 53%. Further, the values for the EC50 in test [2] (setting [7]) and in test [3] (setting [8]) were 3160 nM and 316 nM, respectively.

Take `c1ccc2c(c1)N=C(N1CCNCC1)c1ccccc1S2` [11-(piperazin-1-yl)-dibenzo[b,f][1,4]thiazepin]: the Emax turned out to be 41% in test [2] (R-SAT) and 4% in test [3] (R-SAT). Further, the EC50 in test [2] (setting [7]) is 316 nM.

As to `c1ccc2c(c1)N=C(N1CCCNCC1)c1ccccc1N2` [11-[1,4]Diazepam-1-yl-5H-dibenzo[b,e][1,4]diazepine], the Emax was determined as 25% in test [2] and 18% in test [3].

As for `Clc1ccc2c(c1)N=C(NC[C@H]1CCCN1)c1ccccc1N2` [(8-Chloro-5H-dibenzo[b,e][1,4]diazepin-11-yl)-(R)-1-pyrrolidin-2-yl-methyl-amine], the Emax in test [2] (R-SAT) was 5%; in test [3] (R-SAT), 4%.

For `Clc1ccc2c(c1)N=C(NC[C@@H]1CCCN1)c1ccccc1N2` [(8-Chloro-5H-dibenzo[b,e][1,4]diazepin-11-yl)-(S)-1-pyrrolidin-2-yl-methyl-amine], the Emax in test [2] (R-SAT) came to 23%; in test [3] (R-SAT), 77%. The EC50 in test [3] (setting [8]) was 501 nM.

As for `Clc1ccc2c(c1)N=C(NC1CCNC1)c1ccccc1N2` (centres unmarked) [(8-Chloro-5H-dibenzo[b,e][1,4]diazepin-11-yl)-pyrrolidin-3-yl-amine], the Emax in test [2] (R-SAT) was determined as 18%; in test [3] (R-SAT), 10%.

`CN1CCN(C2=Nc3cc(Cl)ccc3Nc3ccccc32)CC1` [Clozapine, clozapine, reference compound]: the “Amphetamine model (ID50 mg/kg po)” value in test [4] (po) was 10 mg/kg. For the same compound, in test [4] (sc), the “Amphetamine model (ID50 mg/kg sc)” value is 1.4 mg/kg. In addition, the “MK-801 model (ID50 mg/kg po)” value in test [5] (po) is listed as 0.6 mg/kg. Besides, the “MK-801 model (ID50 mg/kg sc)” value in test [5] (sc) came to 0.5 mg/kg. Besides, in test [6], the “NOR - 60 minutes post training” value was “not retained” and the “NOR - 120 minutes post training” value is “not retained”. Also, in test [6] (listed as clozapine), the “NOR - 60 minutes post training” value is “abolished novel object recognition” and the “NOR - 120 minutes post training” value was “cognitive impairing effects”.

Turning to `CN(C)CCNC1=Nc2ccccc2Nc2ccccc21` [N′-(5H-Dibenzo[b,e][1,4]diazepine-11-yl)-N,N-dimethyl-ethane-12-diamine], the values for the Emax in test [2] (R-SAT) and in test [3] (R-SAT) were 20% and 10%, respectively.

As to `CCN(CC)CCNC1=Nc2cc(Cl)ccc2Nc2ccccc21` [N′-(8-Chloro-5H-dibenzo[b,e][1,4]diazepine-11-yl)-N,N-diethyl-ethane-1,2-diamine], the values for the Emax in test [2] (R-SAT) and in test [3] (R-SAT) were 9% and 6%, respectively.

`CN(C)CCNC1=Nc2cc(Cl)ccc2Nc2ccccc21` [N′-(8-Chloro-5H-dibenzo[b,e][1,4]diazepine-11-yl)-N,N-dimethyl-ethane-1,2-diamine]: the Emax in test [2] (R-SAT) turned out to be 11%; in test [3] (R-SAT), 4%.

Turning to `CNCCNC1=Nc2cc(Cl)ccc2Nc2ccccc21` [N′-(8-Chloro-5H-dibenzo[b,e][1,4]diazepine-11-yl)-N-methyl-ethane-12-diamine], the Emax worked out at 8% in test [2] (R-SAT) and 5% in test [3] (R-SAT).

For `CN(C)CCNC1=Nc2cc(F)ccc2Nc2ccccc21` [N′-(8-Fluoro-5H-dibenzo[b,e][1,4]diazepine-11-yl)-N,N-dimethyl-ethane-1,2-diamine], the Emax in test [2] (R-SAT) was found to be 21%; in test [3] (R-SAT), 7%.
